Data as given in patent US4459232A, “Imidazo[1,2-c][1,3]benzodiazepines” (Ciba-Geigy Corporation, priority 1982, dated 1984).

Legend:
[1] = system: α-adrenergic; assay: α-adrenergic blocking activity in vitro; assay type: biochemical
[2] = system: monkey; assay: extrapyramidal side effects (dyskinesias, dystonias) in the monkey; assay type: in vivo
[3] = system: rats; assay: conditioned avoidance behavior (lever press to avoid foot shock) in rats; assay type: in vivo; conditions: Rattus norvegicus, oral, read-out: oral dose that disrupts avoidance behavior (decreases avoidance responses)
Method: (§1) Each lever press postpones the shock for 30 seconds. Whenever the animal fails to press the lever once within said period, brief (0.5 sec.) shocks are delivered at 15 second intervals until the animal again presses the lever. Under control conditions the animals press the lever at a moderately steady rate and seldom receive more than five or six shocks during a 25-minute (rats) and up to 4-hour experimental session. Said compounds evaluated for neuroleptic activity, are administered to the animals 30, 90, 210 minutes prior to the experimental session and block the learned conditioned avoidance behavior, manifested by a decrease in avoidance responding with a marked increase in shocks taken by the animal. Both the avoidance responses and failures (shocks received) are recorded separately for evaluation.
(§2) Indicative of the antipsychotic utility of the compounds of this invention, e.g., the compound of example 1, namely 5-(4-methyl-1-piperazinyl)-11H-imidazo[1,2-c][1,3]benzodiazepine disrupts avoidance behavior, e.g. decreases avoidance responses in rats and monkeys at an oral dose of 30 mg/kg or lower.

[4] = biological target: histamine activation of adenylate cyclase; assay: inhibition of histamine activation of adenylate cyclase in vesicles of guinea pig cerebral cortex; assay type: biochemical; conditions: 50 micromolar histamine
Method: Finally, said antihistaminic properties can be shown in vitro, e.g., according to Chasin et al., J. Neurochem. 22, 1031 (1974). Vesicles from a cell free preparation of guinea pig cerebral cortex are preincubated with ^3 H-adenine to form endogenous ^3 H-adenosine triphosphate. The vesicles are then incubated with 50 micromolar histamine to activate ^3 H-cyclic adenosine monophosphate synthesis in the absence or presence of the test compound at a concentration between 0.01 and 100 micromolar. When said compound is active, it inhibits the histamine activation of adenylate cyclase. The IC50 represents the concentration at which histamine activation is inhibited by 50%.

[5] = system: monkeys; assay: conditioned avoidance behavior (lever press to avoid foot shock) in monkeys; assay type: in vivo, squirrel monkey; conditions: Primates, oral, read-out: oral dose that disrupts avoidance behavior (decreases avoidance responses)
Method: as §1, §2

## CN1CCN(C2=Nc3ccccc3Cc3nccn32)CC1 [example 1, 5-(4-methyl-1-piperazinyl)-11H-imidazo[1,2-c][1,3]benzodiazepine]
[1]
  α-adrenergic blocking activity: only minimal α-adrenergic blocking activity
[2]
  extrapyramidal side effects, e.g. dyskinesias and dystonias: essentially free of extrapyramidal side effects
[3]
  minimal effective dose: ≤ 30 mg/kg
[4]
  IC50: ~1000 nM
[5]
  minimal effective dose: ≤ 30 mg/kg
